Source: ChEMBL document CHEMBL3399986, “Rapid 'one-pot' synthesis of a novel benzimidazole-5-carboxylate and its hydrazone derivatives as potential anti-inflammatory and antimicrobial agents” (Bioorg Med Chem Lett, 2015)
≈ marks a conversion by molar mass, not a printed value.

What was measured:
Format in all cases: functional
Staphylococcus aureus [1] = assay: Antimicrobial activity against Staphylococcus aureus MTCC 3160 after 24 hrs by broth dilution method; settings: MTCC 3160, 24 h
Aspergillus niger [2] = assay: Antifungal activity against Aspergillus niger MTCC 282 after 48 hrs by broth dilution method; settings: MTCC 282, 48 h
Candida albicans [3] = assay: Antifungal activity against Candida albicans MTCC 461 after 48 hrs by broth dilution method; settings: MTCC 461, 48 h
Candida tropicalis [4] = assay: Antifungal activity against Candida tropicalis MTCC 183 after 48 hrs by broth dilution method; settings: MTCC 183, 48 h
Penicillium chrysogenum [5] = assay: Antifungal activity against Penicillium notatum after 48 hrs by broth dilution method
Penicillium chrysogenum [6] = assay: Antifungal activity against Penicillium notatum assessed as zone of inhibition at 5 mg/ml after 24 hrs by agar well diffusion method; settings: read-out: IZ
Escherichia coli [7] = assay: Antimicrobial activity against Escherichia coli MTCC 4351 assessed as zone of inhibition at 5 mg/ml after 24 hrs by agar well diffusion method; settings: MTCC 4351, 24 h, read-out: IZ
Staphylococcus aureus [8] = assay: Antimicrobial activity against Staphylococcus aureus MTCC 3160 assessed as zone of inhibition at 5 mg/ml after 24 hrs by agar well diffusion method; settings: MTCC 3160, 24 h, read-out: IZ
Escherichia coli [9] = assay: Antimicrobial activity against Escherichia coli MTCC 4351 after 24 hrs by broth dilution method; settings: MTCC 4351, 24 h
Rattus norvegicus [10] = assay: Antiinflammatory activity in rat assessed as inhibition of carrageenan-induced paw edema administered 30 mins prior to carrageenan challenge measured after 2 hrs relative to control
Candida albicans [11] = assay: Antifungal activity against Candida albicans MTCC 461 assessed as zone of inhibition at 5 mg/ml after 24 hrs by agar well diffusion method; settings: MTCC 461, 24 h, read-out: IZ
Rattus norvegicus [12] = assay: Antiinflammatory activity in rat assessed as inhibition of carrageenan-induced paw edema administered 30 mins prior to carrageenan challenge measured after 1 hr relative to control
Klebsiella pneumoniae [13] = assay: Antimicrobial activity against Klebsiella pneumoniae MTCC 3384 after 24 hrs by broth dilution method; settings: MTCC 3384, 24 h
Candida tropicalis [14] = assay: Antifungal activity against Candida tropicalis MTCC 183 assessed as zone of inhibition at 5 mg/ml after 24 hrs by agar well diffusion method; settings: MTCC 183, 24 h, read-out: IZ
Bacillus subtilis [15] = assay: Antimicrobial activity against Bacillus subtilis MTCC 441 assessed as zone of inhibition at 5 mg/ml after 24 hrs by agar well diffusion method; settings: MTCC 441, 24 h, read-out: IZ
Bacillus subtilis [16] = assay: Antimicrobial activity against Bacillus subtilis MTCC 441 after 24 hrs by broth dilution method; settings: MTCC 441, 24 h
Rattus norvegicus [17] = assay: Antiinflammatory activity in rat assessed as inhibition of carrageenan-induced paw edema administered 30 mins prior to carrageenan challenge measured after 3 hrs relative to control
Aspergillus niger [18] = assay: Antifungal activity against Aspergillus niger MTCC 282 assessed as zone of inhibition at 5 mg/ml after 24 hrs by agar well diffusion method; settings: MTCC 282, 24 h, read-out: IZ
Klebsiella pneumoniae [19] = assay: Antimicrobial activity against Klebsiella pneumoniae MTCC 3384 assessed as zone of inhibition at 5 mg/ml after 24 hrs by agar well diffusion method; settings: MTCC 3384, 24 h, read-out: IZ

Compound | MIC (Staphylococcus aureus [1]) | MIC (Aspergillus niger [2]) | MIC (Candida albicans [3]) | MIC (Candida tropicalis [4]) | MIC (Penicillium chrysogenum [5]) | zone of inhibition at 5000 µg/mL (Penicillium chrysogenum [6]) | zone of inhibition at 5000 µg/mL (Escherichia coli [7]) | zone of inhibition at 5000 µg/mL (Staphylococcus aureus [8]) | MIC (Escherichia coli [9]) | inhibition (INH) (Rattus norvegicus [10]) | zone of inhibition at 5000 µg/mL (Candida albicans [11]) | inhibition (INH) (Rattus norvegicus [12]) | MIC (Klebsiella pneumoniae [13]) | zone of inhibition at 5000 µg/mL (Candida tropicalis [14]) | zone of inhibition at 5000 µg/mL (Bacillus subtilis [15]) | MIC (Bacillus subtilis [16]) | inhibition (INH) (Rattus norvegicus [17]) | zone of inhibition at 5000 µg/mL (Aspergillus niger [18]) | zone of inhibition at 5000 µg/mL (Klebsiella pneumoniae [19])
CCCn1c(-c2ccc(Cl)cc2Cl)nc2cc(C(=O)N/N=C/c3cccc([N+](=O)[O-])c3)ccc21 | 12.5 µg/mL (≈ 25.2 µM) | 6.25 µg/mL (≈ 12.6 µM) | 6.25 µg/mL (≈ 12.6 µM) | 3.12 µg/mL (≈ 6.29 µM) | 12.5 µg/mL (≈ 25.2 µM) | 15 mm | 15 mm | 17 mm | 25 µg/mL (≈ 50.4 µM) | 53.14% | 17 mm | 52.22% | 12.5 µg/mL (≈ 25.2 µM) | 20 mm | 17 mm | 12.5 µg/mL (≈ 25.2 µM) | 42.91% | 20 mm | 18 mm
CCCn1c(-c2ccc(Cl)cc2Cl)nc2cc(C(=O)N/N=C/c3cccc(Cl)c3Cl)ccc21 | 12.5 µg/mL (≈ 24 µM) | 6.25 µg/mL (≈ 12 µM) | 12.5 µg/mL (≈ 24 µM) | 25 µg/mL (≈ 48.1 µM) | 50 µg/mL (≈ 96.1 µM) | 12 mm | 18 mm | 17 mm | 12.5 µg/mL (≈ 24 µM) | 49.65% | 16 mm | 53.14% | 12.5 µg/mL (≈ 24 µM) | 16 mm | 15 mm | 25 µg/mL (≈ 48.1 µM) | 45.1% | 20 mm | 18 mm
CC1(C)S[C@@H]2[C@H](NC(=O)[C@H](N)c3ccccc3)C(=O)N2[C@H]1C(=O)O [AMPICILLIN] | 1.56 µg/mL (≈ 4.46 µM) |  |  |  |  |  | 25 mm | 26 mm | 1.56 µg/mL (≈ 4.46 µM) |  |  |  | 3.12 µg/mL (≈ 8.93 µM) |  | 24 mm | 1.56 µg/mL (≈ 4.46 µM) |  |  | 23 mm
OC(Cn1cncn1)(Cn1cncn1)c1ccc(F)cc1F [FLUCONAZOLE] |  | 1.56 µg/mL (≈ 5.09 µM) | 1.56 µg/mL (≈ 5.09 µM) | 1.56 µg/mL (≈ 5.09 µM) | 3.12 µg/mL (≈ 10.2 µM) | 22 mm |  |  |  |  | 23 mm |  |  | 24 mm |  |  |  | 24 mm | 
CCCn1c(-c2ccc(Cl)cc2Cl)nc2cc(C(=O)N/N=C/c3cc(C)c(O)c(C)c3)ccc21 | 12.5 µg/mL (≈ 25.2 µM) | 6.25 µg/mL (≈ 12.6 µM) | 50 µg/mL (≈ 101 µM) | 12.5 µg/mL (≈ 25.2 µM) | 25 µg/mL (≈ 50.5 µM) | 15 mm | 20 mm | 17 mm | 6.25 µg/mL (≈ 12.6 µM) | 50.48% | 14 mm | 51.11% | 25 µg/mL (≈ 50.5 µM) | 16 mm | 17 mm | 12.5 µg/mL (≈ 25.2 µM) | 43.06% | 20 mm | 17 mm
CCCn1c(-c2ccc(Cl)cc2Cl)nc2cc(C(=O)N/N=C/c3ccc(Cl)cc3Cl)ccc21 | 25 µg/mL (≈ 48.1 µM) | 25 µg/mL (≈ 48.1 µM) | 25 µg/mL (≈ 48.1 µM) | 12.5 µg/mL (≈ 24 µM) | 50 µg/mL (≈ 96.1 µM) | 12 mm | 12 mm | 15 mm | 50 µg/mL (≈ 96.1 µM) | 63.63% | 15 mm | 51.29% | 50 µg/mL (≈ 96.1 µM) | 16 mm | 15 mm | 25 µg/mL (≈ 48.1 µM) | 38.39% | 18 mm | 15 mm
CCCn1c(-c2ccc(Cl)cc2Cl)nc2cc(C(=O)N/N=C/c3ccc(Cl)cc3)ccc21 | 50 µg/mL (≈ 103 µM) | 25 µg/mL (≈ 51.5 µM) | 12.5 µg/mL (≈ 25.7 µM) | 50 µg/mL (≈ 103 µM) | 25 µg/mL (≈ 51.5 µM) | 13 mm | 10 mm | 12 mm | 50 µg/mL (≈ 103 µM) | 53.56% | 17 mm | 56.85% | 25 µg/mL (≈ 51.5 µM) | 14 mm | 18 mm | 12.5 µg/mL (≈ 25.7 µM) | 46.56% | 17 mm | 17 mm
CCCn1c(-c2ccc(Cl)cc2Cl)nc2cc(C(=O)N/N=C/c3ccc(OC)cc3)ccc21 | 12.5 µg/mL (≈ 26 µM) | 12.5 µg/mL (≈ 26 µM) | 25 µg/mL (≈ 51.9 µM) | 25 µg/mL (≈ 51.9 µM) | 50 µg/mL (≈ 104 µM) | 12 mm | 17 mm | 17 mm | 12.5 µg/mL (≈ 26 µM) | 62.23% | 15 mm | 51.11% | 50 µg/mL (≈ 104 µM) | 16 mm | 10 mm | 50 µg/mL (≈ 104 µM) | 64.67% | 18 mm | 14 mm
CCCn1c(-c2ccc(Cl)cc2Cl)nc2cc(C(=O)N/N=C/c3ccc(C)cc3)ccc21 | 6.25 µg/mL (≈ 13.4 µM) | 3.12 µg/mL (≈ 6.7 µM) | 12.5 µg/mL (≈ 26.9 µM) | 6.25 µg/mL (≈ 13.4 µM) | 6.25 µg/mL (≈ 13.4 µM) | 17 mm | 18 mm | 20 mm | 12.5 µg/mL (≈ 26.9 µM) | 52.72% | 16 mm | 49.25% | 6.25 µg/mL (≈ 13.4 µM) | 18 mm | 17 mm | 12.5 µg/mL (≈ 26.9 µM) | 47.73% | 22 mm | 18 mm
COc1ccc2c(c1)c(CC(=O)O)c(C)n2C(=O)c1ccc(Cl)cc1 [INDOMETHACIN] |  |  |  |  |  |  |  |  |  | 68.11% |  | 55.55% |  |  |  |  | 69.34% |  | 
O=C([O-])Cc1ccccc1Nc1c(Cl)cccc1Cl.[Na+] [DICLOFENAC SODIUM] |  |  |  |  |  |  |  |  |  | 73.28% |  | 62.96% |  |  |  |  | 74.74% |  | 
